This is an account of results in article PMC5259778, “Candidate pheromone receptors of codling moth Cydia pomonella respond to pheromones and kairomones” (Scientific Reports, 2017).

One assay concerns CpomOR6a. The assay can be described thus: Single sensillum recordings, CpomOR6a expressed in Drosophila at1 OSNs. To be noted: for response compared with the solvent: 10 μg doses, Mann-Whitney U Test, p < 0.05; for Spike/s: 10 μg per stimulus. The class given is cell-based, Cydia pomonella. The source says: (§1) To perform heterologous expression in D. melanogaster OSNs, CpomORs were amplified using primers in Table 2 and purified PCR products were cloned into the PCR8/GW/TOPO plasmid (Invitrogen) following the recommended protocol. Cassettes with inserts were then transferred from their PCR8/GW/TOPO plasmids to the destination vector (pUASg-HA.attB, constructed by E. Furger and J. Bischof, kindly provided by the Basler group, Zürich), using the Gateway LR Clonase II kit (Invitrogen). The integrity and orientation of inserts was confirmed by sequencing (Sanger sequencer, 3730xl). Transformant UAS-CpomOR3 and UAS-CpomOR1 lines were generated by Best Gene (Chino Hills, CA, USA), using the PhiC31 integrase system, while the transformant UAS-CpomOR6a line was generated in our labs. Briefly, recombinant pUASg-HA.attB-CpomOR plasmids were injected into embryos of a D. melanogaster line containing an attP insertion site within the third chromosome (genotype y1 M{vas-int.Dm}ZH-2A w*; M{3xP3-RFP.attP}ZH-86Fb), leading to non-random integration. To drive expression of CpomORs in at1 OSNs in place of the endogenous receptor Or67d, transformant UAS-CpomOR lines were crossed to the knock-in Or67d^GAL4 line (kindly provided by Barry Dickson) to generate double homozygous lines w^+;UAS-CpomOR; Or67d^GAL4. Additionally, to drive expression of CpomOR3 in ab3A OSNs, the UAS-CpomOR3 line was crossed to the Δhalo;Or22a-Gal4 mutant line[20][57]. To verify insertion of UAS-CpomORs constructs into the genome, gDNA was extracted and used as template in PCR with primers for the full ORF of CpomORs (Table 2).
(§2) CpomOR1 and CpomOR6a expressed in at1 OSNs, and CpomOR3 expressed in ab3A OSNs, were tested through single sensillum recordings (SSR). Three to 8-day-old flies were immobilized in 100 μL pipette tips with only the top half of the head protruding. The left antenna of each insect was gently pushed with a glass capillary against a double-sided adhesive tape placed on a piece of glass. This piece of glass and the pipette tip were fixed with dental wax on a microscope slide. Electrolytically sharpened tungsten electrodes (Harvard Apparatus Ltd, Edenbridge, United Kingdom) were used to penetrate the insect´s body. The reference electrode was manually inserted in the right eye of the fly, while the recording electrode was manoeuvred with a DC-3K micromanipulator equipped with a PM-10 piezo translator (Märzhäuser Wetzler GmbH, Wetzler, Germany) and inserted at the base of the determined sensilla. Signals coming from the olfactory sensory neurons were amplified 10 times with a probe (INR-02, Syntech, Hilversum, the Netherlands), digitally converted through an IDAC-4-USB (Syntech) interface, and visualized and analysed with the software Autospike v. 3.4 (Syntech). A constant flow of 0.65 m/s of humidified air (charcoal-filtered) was delivered through a glass tube to the antenna. The panel of odorants was given to the insect by inserting pipettes containing a piece of filter paper with the correspondent stimulus in a lateral hole of the glass tube and puffing a flow of 2.5 mL of air during 0.5 s through the pipette. For CpomOR1 and CpomOR6a the panel of odorants was prepared by applying 10 μL of a solution of 1.0 μg/μL of the compounds in Supplementary Dataset S2 and Supplementary Dataset S3, for a total amount of 10 μg per stimulus. In the case of CpomOR3, a similar dilution process was used for the dose response experiments of ethyl-(E,Z)-2,4-decadienoate and methyl-(E,Z)-2,4-decadienoate, as well for dose response of experiments of codlemone acetate in CpomOR6a. Compounds were diluted from concentrations ranging from 0.01 ng/μL to 10 μg/μL in decadic steps, allowing reaching concentrations from 100 pg to 100 μg per stimulus when 10 μL of the dilution was applied in the piece of filter paper. […]

The test system of the next assay is CpomOR1. In words: Single sensillum recordings, CpomOR1 expressed in Drosophila at1 OSNs. As to conditions: 10 μg per stimulus. The class given is cell-based, Cydia pomonella.
Source text: as §1, §2

As for `C/C=C\C=C\CCCCCCCOC(C)=O` [(E,Z)-8,10:12Ac, (E,Z)-8,10-dodecadien-1yl acetate], the “response compared with the solvent” value in the assay on CpomOR6a was “significantly activated”. Moreover, the Spike/s in the assay on CpomOR6a (replicate 1) is 6 Spike/s; in the assay on CpomOR6a (replicate 2), 10 Spike/s; in the assay on CpomOR6a (replicate 3) it was 16 Spike/s; with CpomOR6a (replicate 4) it was 6 Spike/s; in the assay with CpomOR6a (replicate 5) it was 8 Spike/s; in the assay on CpomOR6a (replicate 6) it was 24 Spike/s. Further, the figures for the Spike/s in the assay on CpomOR6a (replicate 7), with CpomOR6a (replicate 8) and in the assay with CpomOR6a (replicate 9) were 16 Spike/s, 34 Spike/s and 2 Spike/s, respectively.

On to `C/C=C/CCCCCCCCCO` [(E10)-12:OH], for which the Spikes/s is given as -2 Spikes/s in the assay on CpomOR1 (replicate 1); -2 Spikes/s with CpomOR1 (replicate 2); 0 Spikes/s with CpomOR1 (replicate 3); -4 Spikes/s in the assay on CpomOR1 (replicate 4); 2 Spikes/s in the assay with CpomOR1 (replicate 5).

Turning to `CCC/C=C\CCCCCCCOC(C)=O` [(Z)-8:12Ac, (Z)-8-dodecadien-1yl acetate], the Spike/s is recorded as 0 Spike/s with CpomOR6a (replicate 1); 0 Spike/s in the assay with CpomOR6a (replicate 2); 0 Spike/s in the assay with CpomOR6a (replicate 3); 4 Spike/s in the assay with CpomOR6a (replicate 4); -2 Spike/s in the assay on CpomOR6a (replicate 5); 22 Spike/s in the assay on CpomOR6a (replicate 6). For the same molecule, the Spike/s in the assay with CpomOR6a (replicate 7) is reported as 32 Spike/s; with CpomOR6a (replicate 8), 6 Spike/s; in the assay with CpomOR6a (replicate 9) it was -8 Spike/s.

As for `C=C/C(C)=C/CC=C(C)C` [(E)-β-ocimene], the Spikes/s in the assay with CpomOR1 (replicate 1) came out at 2 Spikes/s; in the assay with CpomOR1 (replicate 2) it was 8 Spikes/s; with CpomOR1 (replicate 3), 0 Spikes/s; in the assay with CpomOR1 (replicate 4), 2 Spikes/s; in the assay on CpomOR1 (replicate 5), 4 Spikes/s.

`CCCCCC(=O)OCCCC` [butyl hexanoate]: the Spikes/s is 4 Spikes/s with CpomOR1 (replicate 1); -4 Spikes/s with CpomOR1 (replicate 2); 2 Spikes/s with CpomOR1 (replicate 3); 0 Spikes/s in the assay on CpomOR1 (replicate 4); -8 Spikes/s in the assay on CpomOR1 (replicate 5).

Take `C/C=C/C=C\CCCCCCCOC(C)=O` [(Z,E)-8,10:12Ac, (Z,E)-8,10-dodecadien-1yl acetate]: the Spike/s is on record as 10 Spike/s with CpomOR6a (replicate 1); 2 Spike/s with CpomOR6a (replicate 2); -4 Spike/s with CpomOR6a (replicate 3); 8 Spike/s with CpomOR6a (replicate 4); 0 Spike/s in the assay with CpomOR6a (replicate 5); 18 Spike/s in the assay with CpomOR6a (replicate 6). In addition, the Spike/s in the assay on CpomOR6a (replicate 7) is listed as 26 Spike/s; with CpomOR6a (replicate 8) it was 40 Spike/s; with CpomOR6a (replicate 9), 10 Spike/s.

As to `C/C=C\C=C\CCCCCCCO` [(E8,Z10)-12:OH], the Spikes/s with CpomOR1 (replicate 1) is -2 Spikes/s; in the assay on CpomOR1 (replicate 2) it was -2 Spikes/s; in the assay with CpomOR1 (replicate 3) it was 0 Spikes/s; with CpomOR1 (replicate 4), -2 Spikes/s; with CpomOR1 (replicate 5), -2 Spikes/s.

With `C/C=C\C/C=C/CCCCCCCCOC(C)=O` [(Z9,E12)-14:Ac], the Spikes/s in the assay with CpomOR1 (replicate 1) was 2 Spikes/s; in the assay with CpomOR1 (replicate 2) it was -4 Spikes/s; with CpomOR1 (replicate 3), 2 Spikes/s; in the assay on CpomOR1 (replicate 4), -10 Spikes/s; with CpomOR1 (replicate 5) it was 0 Spikes/s.

On to `C/C=C/CCCCCCCCCOC(C)=O` [(E)-10:12Ac, (E)-10-dodecadien-1-yl acetate], for which the “response compared with the solvent” value with CpomOR6a is on record as “significantly activated”. In addition, the Spike/s is listed as 26 Spike/s in the assay on CpomOR6a (replicate 1); 26 Spike/s in the assay on CpomOR6a (replicate 2); 28 Spike/s with CpomOR6a (replicate 3); 60 Spike/s in the assay with CpomOR6a (replicate 4); 34 Spike/s with CpomOR6a (replicate 5); 36 Spike/s in the assay with CpomOR6a (replicate 6). The Spike/s stood at 50 Spike/s in the assay on CpomOR6a (replicate 7), 66 Spike/s with CpomOR6a (replicate 8) and 26 Spike/s in the assay with CpomOR6a (replicate 9).

Turning to `C/C=C/C=C\CCCCCCCO` [(Z8,E10)-12:OH], the Spikes/s with CpomOR1 (replicate 1) is 0 Spikes/s; in the assay with CpomOR1 (replicate 2), 0 Spikes/s; in the assay with CpomOR1 (replicate 3), 6 Spikes/s; with CpomOR1 (replicate 4) it was 8 Spikes/s; in the assay with CpomOR1 (replicate 5) it was -4 Spikes/s.

`C/C=C\C=C/CCCCCCCO` [(Z8,Z10)-12:OH]: the Spikes/s is -2 Spikes/s in the assay with CpomOR1 (replicate 1); 0 Spikes/s in the assay on CpomOR1 (replicate 2); 0 Spikes/s in the assay with CpomOR1 (replicate 3); 4 Spikes/s with CpomOR1 (replicate 4); 12 Spikes/s with CpomOR1 (replicate 5).

On to `CC/C=C/CCCCCCCCO` [(E9)-12:OH], for which the Spikes/s is listed as -4 Spikes/s in the assay with CpomOR1 (replicate 1); 0 Spikes/s with CpomOR1 (replicate 2); 2 Spikes/s in the assay on CpomOR1 (replicate 3); 4 Spikes/s in the assay on CpomOR1 (replicate 4); -2 Spikes/s in the assay on CpomOR1 (replicate 5).

Turning to `C=C/C=C(\C)CCC=C(C)C` [4,8-Dimethyl-1,(E)-3,7-nonatriene], the Spikes/s in the assay on CpomOR1 (replicate 1) was 2 Spikes/s; with CpomOR1 (replicate 2), -6 Spikes/s; in the assay with CpomOR1 (replicate 3) it was 2 Spikes/s; in the assay on CpomOR1 (replicate 4), 4 Spikes/s; with CpomOR1 (replicate 5) it was -8 Spikes/s.

`CCC/C=C/CCCCCCCOC(C)=O` [(E)-8:12Ac, (E)-8-dodecadien-1-yl acetate]: the Spike/s is 10 Spike/s in the assay on CpomOR6a (replicate 1); 0 Spike/s in the assay on CpomOR6a (replicate 2); 4 Spike/s in the assay on CpomOR6a (replicate 3); 4 Spike/s in the assay on CpomOR6a (replicate 4); 12 Spike/s with CpomOR6a (replicate 5); 26 Spike/s with CpomOR6a (replicate 6). The values for the Spike/s in the assay on CpomOR6a (replicate 7), in the assay with CpomOR6a (replicate 8) and in the assay on CpomOR6a (replicate 9) were 30 Spike/s, 30 Spike/s and 10 Spike/s, respectively.

On to `C=CC(=C)CC/C=C(\C)CCC=C(C)C` [(E)-β-farnesene], for which the Spikes/s is on record as 0 Spikes/s with CpomOR1 (replicate 1); 4 Spikes/s with CpomOR1 (replicate 2); 2 Spikes/s in the assay with CpomOR1 (replicate 3); 0 Spikes/s with CpomOR1 (replicate 4); 2 Spikes/s in the assay with CpomOR1 (replicate 5).

For the molecule `C/C=C\CCCCCCCCCOC(C)=O` [(Z)-10:12Ac, (Z)-10-dodecadien-1-yl acetate], the Spike/s in the assay on CpomOR6a (replicate 1) is recorded as 0 Spike/s; in the assay on CpomOR6a (replicate 2), 6 Spike/s; in the assay with CpomOR6a (replicate 3), 2 Spike/s; in the assay with CpomOR6a (replicate 4), 2 Spike/s; in the assay with CpomOR6a (replicate 5) it was 6 Spike/s; in the assay on CpomOR6a (replicate 6), 12 Spike/s. Also, the results for the Spike/s in the assay on CpomOR6a (replicate 7), with CpomOR6a (replicate 8) and with CpomOR6a (replicate 9) were 14 Spike/s, 4 Spike/s and 4 Spike/s, respectively.

In the case of `C/C=C\C=C/CCCCCCCOC(C)=O` [(Z,Z)-8,10:12Ac, (Z,Z)-8,10-dodecadien-1yl acetate], the “response compared with the solvent” value with CpomOR6a is given as “significantly activated”. Further, the Spike/s was determined as 14 Spike/s in the assay on CpomOR6a (replicate 1); 12 Spike/s with CpomOR6a (replicate 2); 10 Spike/s with CpomOR6a (replicate 3); 16 Spike/s in the assay on CpomOR6a (replicate 4); 20 Spike/s in the assay with CpomOR6a (replicate 5); 20 Spike/s in the assay with CpomOR6a (replicate 6). Further, the values for the Spike/s in the assay on CpomOR6a (replicate 7), with CpomOR6a (replicate 8) and with CpomOR6a (replicate 9) were 10 Spike/s, 32 Spike/s and 12 Spike/s, respectively.

Regarding Dodecadien-1-yl acetate [12Ac], the Spike/s is given as 4 Spike/s with CpomOR6a (replicate 1); 4 Spike/s in the assay on CpomOR6a (replicate 2); -2 Spike/s with CpomOR6a (replicate 3); 6 Spike/s in the assay on CpomOR6a (replicate 4); 10 Spike/s in the assay with CpomOR6a (replicate 5); 6 Spike/s in the assay with CpomOR6a (replicate 6). Further, the Spike/s with CpomOR6a (replicate 7) is reported as 0 Spike/s; in the assay with CpomOR6a (replicate 8), 12 Spike/s; in the assay with CpomOR6a (replicate 9), -12 Spike/s.
